Molecules are shown by their SMILES.

This experiment deals with HCV replicon cells. In words: HCV replicon FRET / luciferase assay (96-well plates). It counts as cell-based. Particulars: Hepatitis C virus, 24 h, Table 1d (class symbols); HCV replicon; read-out: EC50. An excerpt: FRET Assay Preparation. To perform the HCV FRET screening assay, 96-well cell culture plates were used. The FRET peptide (Anaspec, Inc.) (Taliani et al., Anal. Biochem. 1996, 240, 60-67) contains a fluorescence donor, EDANS, near one end of the peptide and an acceptor, DABCYL, near the other end. The fluorescence of the peptide is quenched by […] resonance energy transfer (RET) between the donor and the acceptor, but as the NS3 protease cleaves the peptide the products are released from RET quenching and the fluorescence of the donor becomes apparent. The assay reagent was made as follows: 5× cell Luciferase cell culture lysis reagent from Promega (#E153A) diluted to 1× with dH2O, NaCl added to 150 mM final, the FRET peptide diluted to 20 μM final from a 2 mM stock.
To prepare plates, HCV replicon cells, with or without a Renilla luciferase reporter gene, were trypsinized and placed into each well of a 96-well plate with titrated test compounds added in columns 3 through 12; columns 1 and 2 contained a control compound (HCV protease inhibitor), and the bottom row contained cells without compound. The plates were then placed in a CO2 incubator at 37° C.
Assays. Subsequent to addition of the test compounds described above (FRET Assay Preparation), at various times the plate was removed and Alamar blue solution (Trek Diagnostics, #00-100) was added per well as a measure of cellular toxicity. After reading in a Cytoflour 4000 instrument (PE Biosystems), plates were rinsed with PBS and then used for FRET assay by the addition of 30 ul of the FRET peptide assay reagent described above (FRET Assay Preparation) per well. The plate was then placed into the Cytoflour 4000 instrument which had been set to 340 excite/490 emission, automatic mode for 20 cycles and the plate read in a kinetic mode. Typically, the signal to noise using an endpoint analysis after the reads was at least three-fold. Alternatively, after Alamar blue reading, plates were rinsed with PBS, 50 ul of DMEM (high glucose) without phenol red was added and plates were then used for luciferase assay using the Promega Dual-Glo Luciferase Assay System.
Compound analysis was determined by quantification of the relative HCV replicon inhibition and the relative cytotoxicity values. To calculate cytoxicity values, the average Alamar Blue fluorescence signals from the control wells were set as 100% non-toxic. The individual signals in each of the compound test wells were then divided by the average control signal and multiplied by 100% to determine […]. To calculate the HCV replicon inhibition values, an average background value was obtained from the two wells containing the highest amount of HCV protease inhibitor at the end of the assay period. These numbers were similar to those obtained from naïve Huh-7 cells.
The background numbers were then subtracted from the average signal obtained from the control wells and this number was used as 100% activity. The individual signals in each of the compound test wells were then divided by the averaged control values after background subtraction and multiplied by 100% to determine percent activity. EC50 values for a protease inhibitor titration were calculated as the concentration which caused a 50% reduction in FRET or luciferase activity. The two numbers generated for the compound plate, percent cytoxicity and percent activity were used to determine compounds of interest for further analysis.
For orientation: Replicon systems follow genome replication, usually without infectious particles.
What is called EC50 is the concentration at which the effect is half-maximal. For `CNC(=O)c1c(-c2ccc(F)cc2)oc2ccc(-c3cc(C(=O)NC4(c5ccccn5)CC4)c(OCCN4CCOCC4)cc3C)cc12`, the EC50 was 1 to 250 nM.

For the molecule `CNC(=O)c1c(-c2ccc(F)cc2)oc2ccc(-c3cc(C(=O)NC4(c5ccccn5)CC4)c(OCC4CCOCC4)cc3C)cc12`, the EC50 lay in the range of 1 to 250 nM.

For `CNC(=O)c1c(-c2ccc(F)cc2)oc2ccc(-c3cc(C(=O)NC4(c5ocnc5C)CC4)ccc3C)cc12`, the EC50 was in the range of 1 to 250 nM.

As to `CNC(=O)c1c(-c2ccc(F)cc2)oc2ccc(-c3cc(C(=O)NC4(c5nc(C)cc(C)n5)CC4)c(OC)cc3C)cc12`, the concentration for a half-maximal effect (EC50) fell in the range of 1 to 250 nM.

`CNC(=O)c1c(-c2ccc(F)cc2)oc2ccc(-c3cc(C(=O)NC4(c5cnccn5)CC4)ccc3C)cc12`: the EC50 was in the range of 1 to 250 nM.

For `CNC(=O)c1c(-c2ccc(F)cc2)oc2ccc(-c3cc(C(=O)NC4(c5nc(C)cc(C)n5)CC4)ccc3C)cc12`, the EC50 is 1 to 250 nM.

`CNC(=O)c1c(-c2ccc(F)cc2)oc2ccc(-c3cc(C(=O)NC4(c5nccc(C)n5)CC4)ccc3C)cc12`: the EC50 is 1 to 250 nM.

Take `CNC(=O)c1c(-c2ccc(F)cc2)oc2ccc(-c3cc(C(=O)NC4(c5ncc(C)cn5)CC4)ccc3C)cc12`: the EC50 is 1 to 250 nM.

`CNC(=O)c1c(-c2ccc(F)cc2)oc2ccc(-c3cc(C(=O)NC4(c5ncc(F)cn5)CC4)ccc3C)cc12`: the concentration giving a half-maximal response (EC50) is 1 to 250 nM.

Take `CNC(=O)c1c(-c2ccc(F)cc2)oc2ccc(-c3cc(C(=O)NC4(c5ccncn5)CC4)c(OC)cc3C)cc12`: the EC50 fell in the range of 1 to 250 nM.

Regarding `CNC(=O)c1c(-c2ccc(F)cc2)oc2ccc(-c3cc(C(=O)NC4(c5nccc(C)n5)CC4)c(OC)cc3C)cc12`, the EC50 is 1 to 250 nM.

For `CNC(=O)c1c(-c2ccc(F)cc2)oc2ccc(-c3cc(C(=O)NC4(c5ncc(F)cn5)CC4)c(OC)cc3C)cc12`, the EC50 was 1 to 250 nM.

In the case of `CNC(=O)c1c(-c2ccc(F)cc2)oc2ccc(-c3cc(C(=O)NC4(c5ccnnc5)CC4)ccc3C)cc12`, the EC50 is 1 to 250 nM.

Regarding `CNC(=O)c1c(-c2ccc(F)cc2)oc2ccc(-c3cc(C(=O)NC4(c5ncc(C)cn5)CC4)c(OC)cc3C)cc12`, the EC50 fell in the range of 1 to 250 nM.

As to `CNC(=O)c1c(-c2ccc(F)cc2)oc2ccc(-c3cc(C(=O)NC4(c5nccc(C)n5)CC4)c(OC)cc3C)c(F)c12`, the EC50 was in the range of 1 to 250 nM.

For `CNC(=O)c1c(-c2ccc(F)cc2)oc2ccc(-c3cc(C(=O)NC4(c5ncc(C)cn5)CC4)c(OC)cc3C)c(F)c12`, the concentration for a half-maximal effect (EC50) fell in the range of 1 to 250 nM.

In the case of `CNC(=O)c1c(-c2ccc(F)cc2)oc2ccc(-c3cc(C(=O)NC4(c5cnccn5)CC4)c(OC)cc3C)c(F)c12`, the EC50 is 1 to 250 nM.

Consider `CNC(=O)c1c(-c2ccc(F)cc2)oc2ccc(-c3cc(C(=O)NC4(c5ccnnc5)CC4)c(OC)cc3C)cc12`, for which the EC50 lay within 1 to 250 nM.

Regarding `CNC(=O)c1c(-c2ccc(F)cc2)oc2ccc(-c3cc(C(=O)NC4(c5ccncn5)CC4)c(OC)cc3C)c(F)c12`, the EC50 was in the range of 1 to 250 nM.

As to `CNC(=O)c1c(-c2ccc(F)cc2)oc2ccc(-c3cc(C(=O)NC4(c5nc(C)cc(C)n5)CC4)c(OC)cc3C)c(F)c12`, the EC50 lay in the range of 1 to 250 nM.

Consider `CNC(=O)c1c(-c2ccc(F)cc2)oc2ccc(-c3cc(C(=O)NC(C)(C)C)c(OC)cc3OCC(N)=O)cc12`, for which the EC50 is 1 to 250 nM.

Turning to `CNC(=O)c1c(-c2ccc(F)cc2)oc2ccc(-c3cc(C(=O)NC4(c5cccnn5)CC4)c(OC)cc3C)cc12`, the half-maximal effective concentration (EC50) lay within 1 to 250 nM.

Regarding `CNC(=O)c1c(-c2ccc(F)cc2)oc2ccc(-c3cc(C(=O)NC4(c5cnccn5)CC4)ccc3C)c(F)c12`, the EC50 was 1 to 250 nM.

With `CNC(=O)c1c(-c2ccc(F)cc2)oc2ccc(-c3cc(C(=O)NC4(c5ccncn5)CC4)ccc3C)c(F)c12`, the EC50 was 1 to 250 nM.

Regarding `CNC(=O)c1c(-c2ccc(F)cc2)oc2ccc(-c3cc(C(=O)NC4(c5cccnn5)CC4)ccc3C)c(F)c12`, the EC50 lay in the range of 1 to 250 nM.

Consider `CNC(=O)c1c(-c2ccc(F)cc2)oc2ccc(-c3cc(C(=O)NC4(c5cccnn5)CC4)c(OC)cc3C)c(F)c12`, for which the EC50 was 1 to 250 nM.

Regarding `CNC(=O)c1c(-c2ccc(F)cc2)oc2ccc(-c3cc(C(=O)NC4(c5ccnnc5)CC4)ccc3C)c(F)c12`, the concentration giving a half-maximal response (EC50) lay in the range of 1 to 250 nM.

(Values after US8309558B2, “Compounds for the treatment of hepatitis C” (Bristol-Myers Squibb Company, priority 2008, dated 2012).)
